Series [1] concerns BMMC. The experiment in a line: Anti-osteoclastogenesis activity in M-CSF/RANKL-induced C57BL/6 mouse BMMC cells assessed as downregulation of MMP-9 gene expression incubated for 5 days by qRT-PCR analysis. The series is classed as functional, cell-based. Particulars: dose 0-10 µM, time 5.0 day.
For series [2], the system named is BMMC. The experiment in a line: Anti-osteoclastogenesis activity in M-CSF/RANKL-induced C57BL/6 mouse BMMC cells assessed as inhibition of osteoclasts formation incubated for 6 days with media replacement for every 2 days by TRAP-staining based light microscopic analysis. The class given is functional, cell-based.
Series [3] relates to MC3T3-E1. The experiment in a line: Induction of osteoblast differentiation in mouse MC3T3-E1 cells assessed as bone formation by measuring increase in Runx2 protein expression measured after 7 days by Western blot analysis. The class given is functional, cell-based. Particulars: dose 2.5-10 µM, time 7.0 day.
Series [4] is described as follows: Toxicity in OVX osteoporotic C57BL/6 mouse assessed as effect on size and surface gloss of heart at 10 mg/kg, ip administered every other day for 8 weeks by H and E staining based analysis. The series is classed as organism-based. Conditions: in vivo, 1344 h.
For series [5], the system named is Mus musculus. As to the kind of experiment: Anti-osteoporosis activity in ovariectomized C57BL/6 mouse assessed as reduction in bone loss by measuring decrease in TRAP-positive cells around trabecula at 10 mg/kg, ip administered every other day for 8 weeks by TRAP staining based analysis. The series is classed as functional, organism-based.
The test system of series [6] is BMMC. As to the kind of experiment: Anti-osteoclastogenesis activity in M-CSF/RANKL-induced C57BL/6 mouse BMMC cells assessed as reduction in F-actin ring formation incubated for 7 days with media replacement for every other day by TRITC phalloidin/DAPI-staining based fluorescence microscopic analysis. The series is classed as functional, cell-based. Conditions: dose 0-10 µM, time 7.0 day.

The subject of series [7] is Mus musculus. The experiment in a line: Anti-osteoporosis activity in ovariectomized C57BL/6 mouse assessed as reduction in bone loss at 10 mg/kg, ip administered every other day for 8 weeks by H and E staining based analysis. The series is classed as functional, organism-based.
Series [8] deals with BMMC. The experiment in a line: Anti-osteoclastogenesis activity in M-CSF/RANKL-induced C57BL/6 mouse BMMC cells assessed as reduction in number of TRAP-positive osteoclasts at 0 to 10 uM incubated for 6 days with media replacement for every 2 days by TRAP-staining based light microscopic analysis. The class given is functional, cell-based. Conditions: dose 0-10 µM, time 6.0 day.

The test system of series [9] is Mus musculus. As to the kind of experiment: Anti-osteoporosis activity in ovariectomized C57BL/6 mouse assessed as reduction in bone loss by measuring decrease in trabecular spacing at 10 mg/kg, ip administered every other day for 8 weeks by micro-CT analysis. The series is classed as functional, organism-based.
In series [10] the test system is MC3T3-E1. The experiment in a line: Induction of osteoblast differentiation in mouse MC3T3-E1 cells assessed as bone formation by measuring increase in calcium deposition measured after 21 days by Alizarin red S staining based inverted microscopic analysis. The series is classed as functional, cell-based. Particulars: dose 2.5-10 µM, time 21.0 day.
For series [11], the system named is MC3T3-E1. As to the kind of experiment: Cytotoxicity against mouse MC3T3-e1 cells assessed as reduction in cell viability at 2.5 to 10 uM measured after 7 days by MTT assay. Conditions: mc3t3-e1, 168 h, dose 2.5-10 µM, time 7 day. The class given is toxicity, cell-based.
In series [12] the target is MAP kinase p38 (Mus musculus) (UniProt P47811+O08911+Q9WUI1+Q9Z1B7). As to the kind of experiment: Inhibition of p38 phosphorylation in RANKL-induced C57BL/6 mouse BMMC cells at 5 uM pretreated for 6 hrs followed by RANKL stimulation and measured upto 60 mins by Western blot analysis. The class given is cell-based. Conditions: time <= 7.0 hrs.
The subject of series [13] is BMMC. As to the kind of experiment: Anti-osteoclastogenesis activity in M-CSF/RANKL-induced C57BL/6 mouse BMMC cells assessed as downregulation of TRAP gene expression incubated for 5 days by qRT-PCR analysis. The class given is functional, cell-based. Particulars: dose 0-10 µM, time 5.0 day.
Series [14] has as its system BMMC. As to the kind of experiment: Anti-osteoclastogenesis activity in M-CSF/RANKL-induced C57BL/6 mouse BMMC cells assessed as prevention of osteoclasts precursor differentiation at 5 uM measured on day 1 to 3 by TRAP-staining based light microscopic analysis. The class given is functional, cell-based. Conditions: time 1-3 day.
In series [15] the test system is BMMC. The experiment in a line: Anti-osteoclastogenesis activity in M-CSF/RANKL-induced C57BL/6 mouse BMMC cells assessed as downregulation of DC-STAMP gene expression incubated for 5 days by qRT-PCR analysis. The series is classed as functional, cell-based. Conditions: dose 0-10 µM, time 5.0 day.
A short description of series [16]: Toxicity in OVX osteoporotic C57BL/6 mouse assessed as abnormal behaviors at 10 mg/kg, ip administered every other day for 8 weeks. The series is classed as organism-based. Conditions: in vivo, 1344 h.
Series [17] has as its target T1, NF-kappa-B inhibitor alpha (Mus musculus) (UniProt Q9Z1E3).
T1 sequence (whole entry): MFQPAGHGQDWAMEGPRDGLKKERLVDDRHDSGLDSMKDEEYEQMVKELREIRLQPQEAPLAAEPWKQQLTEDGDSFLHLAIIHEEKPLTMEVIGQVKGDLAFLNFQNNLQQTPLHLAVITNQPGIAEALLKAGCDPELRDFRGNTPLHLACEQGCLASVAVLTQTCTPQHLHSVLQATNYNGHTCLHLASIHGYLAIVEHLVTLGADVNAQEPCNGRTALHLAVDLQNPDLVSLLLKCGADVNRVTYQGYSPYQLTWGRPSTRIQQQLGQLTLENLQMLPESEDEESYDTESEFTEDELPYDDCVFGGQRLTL
The experiment in a line: Inhibition of RANKL-induced IkappaBalpha phosphorylation in C57BL/6 mouse BMMC cells at 5 uM pretreated for 6 hrs followed by RANKL stimulation and measured upto 60 mins by Western blot analysis. The series is classed as cell-based. Conditions: time <= 7.0 hrs.

The test system of series [18] is Mus musculus. The experiment in a line: Anti-osteoporosis activity in ovariectomized C57BL/6 mouse assessed as reduction in bone loss by measuring increase in trabecular thickness at 10 mg/kg, ip administered every other day for 8 weeks by micro-CT analysis. The class given is functional, organism-based.
In series [19] the test system is BMMC. As to the kind of experiment: Inhibition of ERK phosphorylation in RANKL-induced C57BL/6 mouse BMMC cells at 5 uM pretreated for 6 hrs followed by RANKL stimulation and measured upto 60 mins by Western blot analysis. The class given is cell-based. Conditions: time <= 7.0 hrs.
The test system of series [20] is BMMC. The experiment in a line: Anti-osteoclastogenesis activity in M-CSF/RANKL-induced C57BL/6 mouse BMMC cells cultured in hydroxyapatite-coated plates assessed as reduction in bone resorbed area per osteoclast incubated for 4 days by microscopic analysis. The class given is functional, cell-based. Particulars: dose 2.5-10 µM, time 4.0 day.
Series [21] is described as follows: Toxicity in OVX osteoporotic C57BL/6 mouse assessed as effect on size and surface gloss of kidney at 10 mg/kg, ip administered every other day for 8 weeks by H and E staining based analysis. The class given is organism-based. Particulars: in vivo, 1344 h.

Consider one molecule from ChEMBL document CHEMBL5543155, “Design, Synthesis, and Biological Evaluation of β-Trifluoroethoxydimethyl Selenides as Potent Antiosteoporosis Agents” (J Med Chem, 2024).

Calls of active or inactive are those of the source. No cut-off for these calls is given here.

For the molecule `CC(C)(OCC(F)(F)F)C([Se]c1ccccc1)C(=O)Nc1ccncc1` (configuration not stated), the Activity result was “Dose-Dependent Effect” in [1]; “Dose-Dependent Effect” in [2] (dose 0-10 µM, time 6.0 day); “Dose-Dependent Effect” in [3]; “Non-Toxic” in series [4]; “Dose-Dependent Effect” in series [6]; “Dose-Dependent Effect” in series [10]. Besides, the Activity entry in [11] is “Non-Toxic”; in [13] it was “Dose-Dependent Effect”; in series [15], “Dose-Dependent Effect”; in series [16], “Non-Toxic”; in series [20] it was “Dose-Dependent Effect”; in series [21], “Non-Toxic”. The IC50 in series [2] (C57BL/6, BMMC) was 2410 nM. Moreover, the result in series [5], in [7], in [8], in [9], in [14] and in [18] was Active. Also, the inhibition result in series [12], in series [17] and in series [19] was “Active” in each case.
